From article PMC4889029 (Chemistry & biology, 2015)
Where two headings read alike, the source gives them in different places.

Tests used:
Test in all cases: in vitro DNA strand exchange assay with recombinant hRAD51
Assay type in all cases: biochemical
hRAD51 [1] = biological target: T1, hRAD51 (Homo sapiens, UniProt Q06609)
T1 sequence (Q06609 2-339): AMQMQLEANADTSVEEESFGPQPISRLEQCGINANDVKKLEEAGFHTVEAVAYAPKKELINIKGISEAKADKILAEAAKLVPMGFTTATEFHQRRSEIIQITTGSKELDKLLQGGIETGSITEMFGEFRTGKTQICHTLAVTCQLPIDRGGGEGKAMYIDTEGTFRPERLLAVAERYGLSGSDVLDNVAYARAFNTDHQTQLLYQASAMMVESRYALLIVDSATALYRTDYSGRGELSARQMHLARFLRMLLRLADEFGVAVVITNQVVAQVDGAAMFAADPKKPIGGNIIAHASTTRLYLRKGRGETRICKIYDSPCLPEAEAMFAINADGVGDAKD

hRAD51 [2] = biological target: T1, hRAD51; remark: listed apart in the source
hRAD51 [3] = biological target: T1, hRAD51; remark: listed apart in the source

With `O=S(=O)(O)c1cc(N=C=S)ccc1/C=C/c1ccc(N=C=S)cc1S(=O)(=O)O` [DIDS] the IC50 (hRAD51 [1]) was 90 ± 2.5 µM.
`COc1cc(/C=C/c2ccc(O)cc2)cc(OC)c1` [P-ter, E-pterostilbene] gave an EC50 (hRAD51 [2]) of 19.2 ± 2.4 µM.
Work on `O=C1C(Cl)=C(N2CCOCC2)C(=O)N1c1ccc(Cl)c(Cl)c1` [RI-1] yielded an IC50 (hRAD51 [1]) of 50 ± 5 µM.
With `O=C(Nc1ccc(Br)cc1)c1ccc(Br)c(S(=O)(=O)NCc2ccccc2)c1` [RS-1] the EC50 (hRAD51 [3]) was 25 ± 3 µM.
